Molecular target: Neuronal acetylcholine receptor subunit alpha-7 (Rattus norvegicus, UniProt Q05941)
Experiment: Binding affinity of Norditerpenoid Alkaloids at rat neuronal alpha7-type nicotinic acetylcholine receptor

Sequence of Neuronal acetylcholine receptor subunit alpha-7 (Q05941 whole entry): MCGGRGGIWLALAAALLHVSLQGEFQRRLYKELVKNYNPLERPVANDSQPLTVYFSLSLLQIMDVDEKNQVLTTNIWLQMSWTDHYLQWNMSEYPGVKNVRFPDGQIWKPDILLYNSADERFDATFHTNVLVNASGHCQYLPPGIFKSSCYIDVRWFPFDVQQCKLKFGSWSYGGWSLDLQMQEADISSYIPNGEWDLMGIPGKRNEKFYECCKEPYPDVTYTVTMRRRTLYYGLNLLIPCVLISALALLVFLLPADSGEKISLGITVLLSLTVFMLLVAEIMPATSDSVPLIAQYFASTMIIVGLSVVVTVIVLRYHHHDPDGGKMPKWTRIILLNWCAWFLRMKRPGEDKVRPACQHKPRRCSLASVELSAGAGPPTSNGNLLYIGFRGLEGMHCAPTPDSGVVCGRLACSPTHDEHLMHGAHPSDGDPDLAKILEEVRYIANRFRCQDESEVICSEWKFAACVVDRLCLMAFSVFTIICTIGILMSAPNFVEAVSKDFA

Structure (SMILES)	IC50
CCN1C[C@]2(COC)CC[C@H](O)[C@]34C1[C@@](O)([C@@H](OC)[C@H]23)[C@@]1(O)C[C@H](OC)[C@H]2C[C@@H]4[C@@H]1[C@H]2OC [DELSOLINE]	19 µM
CCN1C[C@]2(COC)CC[C@H](OC)[C@]34C5C[C@@H]6[C@@H](OC)C[C@@]7(OCO[C@@]7(C13)[C@@H](O)C24)C5[C@H]6OC (some centres undefined) [DELCORINE]	53 µM
CCN1C[C@]2(COC(=O)c3ccccc3N3C(=O)C[C@H](C)C3=O)CC[C@H](OC)[C@]34C5C[C@@H]6[C@@H](OC)C[C@@](O)(C5[C@H]6OC(C)=O)[C@](O)(C13)[C@@H](OC)C24 (some centres undefined) [NUDICAULINE]	0.0017 µM
CCN1C[C@]2(OC(=O)c3ccccc3N)CC[C@H](OC)[C@]34C1[C@@H](CC23)[C@@]1(O)C[C@H](OC)[C@H]2CC4[C@]1(O)[C@H]2OC (some centres undefined)	6.8 µM
CCN1C[C@]2(COC)CC[C@H](O)[C@@]34C5C[C@@H]6[C@@H](OC)C[C@](O)(C(CC23)C14)C5[C@H]6OC(C)=O (some centres undefined) [CONDELPHINE]	1.6 µM
CCN1C[C@]2(C)CC[C@H](OC)[C@@]34C1[C@]1(OCO[C@@]15C[C@H](OC)[C@H]1C[C@]3(O)[C@@H]5[C@H]1OC)[C@@H](OC(C)=O)[C@H]24 [DELTALINE]	110 µM
CCN1C[C@]2(COC(=O)c3ccccc3N3C(=O)C[C@H](C)C3=O)CC[C@H](OC)[C@@]34C1[C@@]1(OCO[C@@]15C[C@H](OC)[C@H]1C[C@@H]3[C@@H]5[C@H]1OC)[C@@H](OC)[C@H]24 [ELATINE]	0.0061 µM
CCN1C[C@]2(OC(=O)c3ccccc3NC(C)=O)CC[C@H](OC)[C@@]34[C@@H]2C[C@@H]([C@@H]13)[C@@]1(O)C[C@H](OC)[C@H]2C[C@@H]4[C@]1(O)[C@H]2OC	96 µM
CCN1C[C@]2(CO)CC[C@H](OC)[C@@]34[C@@H]5C[C@H]6[C@H](OC)[C@@H]5[C@](O)(C[C@@H]6OC)[C@](O)([C@@H](OC)[C@H]23)[C@@H]14 [LYCOCTONINE]	10 µM

From ChEMBL document CHEMBL1129749, “Nudicauline and elatine as potent norditerpenoid ligands at rat neuronal alpha-bungarotoxin binding sites: importance of the 2-(methylsuccinimido)benzoyl moiety for neuronal nicotinic acetylcholine receptor binding” (J Med Chem, 1996)
